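Compound exposure: 48 hours, 5 concentrations, 96-well plates. GI50: concentration for 50% inhibition of growth. TGI: total growth inhibition.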
What was measured:
Assay in all cases: NCI anticancer screen, dose series, 48 h
[1] = test system: HS 578T breast
[2] = test system: DU-145 prostate
[3] = test system: COLO 205 colon
[4] = test system: OVCAR-5 ovarian
[5] = test system: NCI-H522 lung
[6] = test system: NCI/ADR-RES ovarian
[7] = test system: CCRF-CEM leukemia
[8] = test system: OVCAR-3 ovarian
[9] = test system: HCT-15 colon
[10] = test system: M14 melanoma
[11] = test system: UO-31 renal
[12] = test system: MCF7 breast
[13] = test system: SNB-19 CNS
[14] = test system: SF-539 CNS
[15] = test system: LOX IMVI melanoma
[16] = test system: MDA-MB-231 breast
[17] = test system: HCC-2998 colon
[18] = test system: OVCAR-4 ovarian
[19] = test system: SF-268 CNS
[20] = test system: HT29 colon
[21] = test system: TK-10 renal
[22] = test system: SF-295 CNS
[23] = test system: HCT-116 colon
[24] = test system: SW-620 colon
[25] = test system: K-562 leukemia
[26] = test system: RPMI-8226 leukemia
[27] = test system: SK-OV-3 ovarian
[28] = test system: U251 CNS
[29] = test system: T-47D breast
[30] = test system: A549 NSCLC
[31] = test system: KM12 colon
[32] = test system: SNB-75 CNS
[33] = test system: UACC-62 melanoma
[34] = test system: SK-MEL-28 melanoma
[35] = test system: IGROV1 ovarian
[36] = test system: RXF 393 renal
[37] = test system: A498 renal
[38] = test system: NCI-H23 lung
[39] = test system: SK-MEL-5 melanoma
[40] = test system: BT-549 breast
[41] = test system: UACC-257 melanoma
[42] = test system: HOP-62 NSCLC
[43] = test system: CAKI-1 renal
[44] = test system: HOP-92 NSCLC
[45] = test system: MALME-3M melanoma
[46] = test system: NCI-H226 lung
[47] = test system: 786-0 renal
[48] = test system: HL-60(TB) leukemia
[49] = test system: SN12C renal
[50] = test system: MDA-MB-435
[51] = test system: SK-MEL-2 melanoma
[52] = test system: OVCAR-8 ovarian
[53] = test system: EKVX NSCLC
[54] = test system: PC-3 prostate
[55] = test system: ACHN renal

## O=C(O)c1cn(C2CC2)c2cc(N3CCN(Cc4c(O)ccc5ccccc45)CC3)c(F)cc2c1=O
[1]
  GI50: 2.74 µM
  TGI: 17.2 µM
[2]
  GI50: 3.78 µM
  TGI: > 100 µM
[3]
  GI50: 5.13 µM
  TGI: > 100 µM
[4]
  GI50: > 100 µM
  TGI: > 100 µM
[5]
  GI50: 2.82 µM
  TGI: > 100 µM
[6]
  GI50: 11.4 µM
  TGI: > 100 µM
[7]
  GI50: 20.5 µM
  TGI: > 100 µM
[8]
  GI50: 3.4 µM
  TGI: 22.6 µM
[9]
  GI50: 3.64 µM
  TGI: > 100 µM
[10]
  GI50: 3.95 µM
  TGI: > 100 µM
[11]
  GI50: 3.71 µM
  TGI: > 100 µM
[12]
  GI50: 5.63 µM
  TGI: > 100 µM
[13]
  GI50: 91.5 µM
  TGI: > 100 µM
[14]
  GI50: 2.1 µM
  TGI: 4.9 µM
[15]
  GI50: 4.67 µM
  TGI: > 100 µM
[16]
  GI50: 5.15 µM
  TGI: > 100 µM
[17]
  GI50: > 100 µM
  TGI: > 100 µM
[18]
  GI50: 7 µM
  TGI: > 100 µM
[19]
  GI50: 56.8 µM
  TGI: > 100 µM
[20]
  GI50: 8.5 µM
  TGI: > 100 µM
[21]
  GI50: 2.66 µM
  TGI: 8.38 µM
[22]
  GI50: 8.22 µM
  TGI: > 100 µM
[23]
  GI50: 2.37 µM
  TGI: 6.17 µM
[24]
  GI50: 4.12 µM
  TGI: > 100 µM
[25]
  GI50: > 100 µM
  TGI: > 100 µM
[26]
  GI50: 12 µM
  TGI: > 100 µM
[27]
  GI50: 11.7 µM
  TGI: > 100 µM
[28]
  GI50: 19 µM
  TGI: > 100 µM
[29]
  GI50: > 100 µM
  TGI: > 100 µM
[30]
  GI50: 4.03 µM
  TGI: > 100 µM
[31]
  GI50: 9.18 µM
  TGI: > 100 µM
[32]
  GI50: 1.94 µM
  TGI: 17.8 µM
[33]
  GI50: 13.5 µM
  TGI: > 100 µM
[34]
  GI50: 6.32 µM
  TGI: > 100 µM
[35]
  GI50: 9.64 µM
  TGI: > 100 µM
[36]
  GI50: 2.68 µM
  TGI: 8.34 µM
[37]
  GI50: 1.48 µM
  TGI: 4.47 µM
[38]
  GI50: 4.63 µM
  TGI: > 100 µM
[39]
  GI50: 5.45 µM
  TGI: > 100 µM
[40]
  GI50: 3.5 µM
  TGI: 48.7 µM
[41]
  GI50: > 100 µM
  TGI: > 100 µM
[42]
  GI50: 3.99 µM
  TGI: 43.1 µM
[43]
  GI50: 3.29 µM
  TGI: > 100 µM
[44]
  GI50: 2.46 µM
  TGI: 8.88 µM
[45]
  GI50: 4.07 µM
  TGI: > 100 µM
[46]
  GI50: 5.45 µM
  TGI: > 100 µM
[47]
  GI50: 2.58 µM
  TGI: 7.05 µM
[48]
  GI50: > 100 µM
  TGI: > 100 µM
[49]
  GI50: 5.38 µM
  TGI: > 100 µM
[50]
  GI50: 4.18 µM
  TGI: > 100 µM
[51]
  GI50: 15.1 µM
  TGI: > 100 µM
[52]
  GI50: 4.61 µM
  TGI: > 100 µM
[53]
  GI50: > 100 µM
  TGI: > 100 µM
[54]
  GI50: 3.75 µM
  TGI: > 100 µM
[55]
  GI50: 29.6 µM
  TGI: > 100 µM

Source: PubChem BioAssay (NCI)
